In this assay the target is L-lactate dehydrogenase A chain (Homo sapiens, UniProt P00338). Nature of the assay: Biochemical Assay. Here is the method: Test compounds were placed in a Greiner Bio-One (Monroe, N.C.) 1536-well black solid bottom assay plate. 200 millimolar (mM) Tris HCl, pH 7.4, 100 micromolar (μM) EDTA and 0.01% TWEEN-20, final concentration, was used as the assay buffer. The LDHA reagent was 2 nanomolar (nM) Human LDHA (Meridian Life Science, Inc., Memphis, Tenn.), final concentration, in assay buffer. The substrate reagent was 0.06 mM NADH and 0.2 mM sodium pyruvate, final concentration, in assay buffer. The resazurin/diaphorase coupling reagent was 0.037 mM resazurin and 0.133 milligrams per milliliter (mg/mL) diaphorase, final concentration, in assay buffer. The inhibition of LDHA activity was measured by fluorescence emission.

As a reminder, the IC50 is the point on the concentration scale where inhibition reaches its midpoint. Read a high IC50 as a need for much substance.

Molecules are shown by their SMILES.

Turning to `CCC#Cc1cc(-c2nn(-c3nc(C(=O)O)cs3)c(CC3CC3)c2Cc2ccc([S+](N)(=O)[O-])c(F)c2)ccc1F` [US10954228, Compound 109], the IC50 was less than 100 nM.

The compound `Cc1ccc(C#Cc2cccc(-c3nn(-c4nc(C(=O)O)cs4)c(C4CC4C4CC4)c3Cc3ccc([S+](N)(=O)[O-])c(F)c3)c2)s1` (stereo not given) [US10954228, Compound 134] registered an IC50 of 100 to 1000 nM.

`NS(=O)(=O)c1ccc(Cc2c(-c3cccc(C(=O)N4CCCC4)c3)nn(-c3nc(C(=O)O)cs3)c2CC2CC2)cc1` [US10954228, Compound 145]: the IC50 was less than 100 nM.

The compound `CC(C)(C)NC(=O)c1cc(-c2nn(-c3nc(C(=O)O)cs3)c(CC3CC3)c2Cc2ccc([S+](N)(=O)[O-])c(F)c2)ccc1F` [US10954228, Compound 147] yielded an IC50 of less than 100 nM.

In turn, `CC(C)(C)NC(=O)c1cccc(-c2nn(-c3nc(C(=O)O)cs3)c(CC3CC3)c2Cc2ccc([S+](N)(=O)[O-])cc2)c1` [US10954228, Compound 188] showed an IC50 of less than 100 nM.

`CN(C)c1ccc(-c2cc(-c3nn(-c4nc(C(=O)O)cs4)c(CC4CC4)c3Cc3ccc(S(N)(=O)=O)c(F)c3)ccc2F)cc1` [US10954228, Compound 190]: the IC50 is less than 100 nM.

The compound `NS(=O)(=O)c1ccc(Cc2c(-c3ccc(F)c(-c4cccc(F)c4)c3)nn(-c3nc(C(=O)O)cs3)c2CC2CC2)cc1F` [US10954228, Compound 196] returned an IC50 of less than 100 nM.

Compound `CC(C)c1ccc(-c2cc(-c3nn(-c4nc(C(=O)O)cs4)c(CC4CC4)c3Cc3ccc(S(N)(=O)=O)c(F)c3)ccc2F)cc1` [US10954228, Compound 199] showed an IC50 of less than 100 nM.

For `CC(C)c1cnc(-c2cccc(-c3nn(-c4nc(C(=O)O)cs4)c(CC4CC4)c3Cc3ccc(S(N)(=O)=O)c(F)c3)c2)nc1` [US10954228, Compound 216], the IC50 was less than 100 nM.

The compound `CC(C)c1ccc(-c2cccc(-c3nn(-c4nc(C(=O)O)cs4)c(CC4CC4)c3Cc3ccc(S(N)(=O)=O)c(F)c3)c2)nc1` [US10954228, Compound 218] had an IC50 of less than 100 nM.

These data come from BindingDB's records for patent US10954228 (The Trustees of The University of Pennsylvania, 2021).
